Data from patent US10184112B2, “Culture medium additive for use in serum-free culturing of animal cell, kit and use thereof” (Two Cells Co., Ltd., priority 2006, dated 2019).
Entries after “also recorded” stand apart in the source; their conditions may differ.

Tested on: Erk 1/2
Assay: Mitogenic signal transduction, western blot for phosphorylated Erk 1/2 (FIGS. 11, 12)
Assay type: cell-based
Settings: human mesenchymal stem cells stimulated; compared with controlled cells (not stimulated)
Description: For the purpose of clarifying a mechanism of cell proliferation in a serum-free culture medium, study was further conducted on activation of a mitogenic signal transduction system caused by each additive factor added into a serum-free culture medium. An active state of the mitogenic signal transduction system caused by each additive factor was analyzed by a western blot method. Here, in protein phosphoenzymes that are particularly closely related to cell proliferation, an extracellular signal control kinase Erk 1/2 and an Akt (a protein phosphoenzyme located downstream to PI3K, and related to regulations of cell functions) were focused in the present example. When the Erk1 1/2 and the Akt are phosphorylated, they are converted into active forms. […] The cultured cells were washed twice with PBS, and were then further cultured for 16 hours in a serum-free culture medium containing 1.25 mg/ml of BSA (bovine serum albumin). After that, the cultured cells were incubated for minutes respectively: (i) in stimulating solutions respectively containing growth factors (E: EGF, F: FGF, G: PDGF, H: HGF, I: insulin, J: TGF-β), dexamethasone (D), transferrin (T); […] B1, A6: phosphatidic acid, A7: phosphatidyl choline); and (iii) in a controlling solution containing none of them. Further, each of the stimulating solutions, and the controlling solution were removed by suction on ice, and then, the cells were washed twice with PBS. The cells thus washed were dissolved in lysis buffer. The resultant cell lysis solution was centrifuged by 6.500 g for 10 minutes, and its supernatant liquid was electrophoresed on 10% SDS-polyacrylamide gel. Proteins thus separated into fractions were transferred on a PVDF membrane (made by Millipore Co.), and then, the fractions were analyzed with antiphosphorylation-specific Erk 1/2 antibody, or antiphosphorylation-specific Akt antibody (both are made by Cell Signaling technology Inc.).
With 3-sn-phosphatidic acid from egg yolk the “phosphorylation of the Erk 1/2” value was “strongly promoted”.
For 3-sn-phosphatidyl choline from egg yolk, the “phosphorylation of the Erk 1/2” value was “promoted”.
For `CCCCC/C=C\C/C=C\C/C=C\C/C=C\CCCC(=O)O` [arachidonic acid], the “phosphorylation of the Erk 1/2” value was “promoted”.
For `CCCCC/C=C\C/C=C\CCCCCCCC(=O)O` [linoleic acid], the “phosphorylation of the Erk 1/2” value was “promoted”.
In the case of `CCCCCCCC/C=C\CCCCCCCC(=O)O` [oleic acid], the “phosphorylation of the Erk 1/2” value was “promoted”.
With EGF: epidermal growth factor the “phosphorylation of the Erk 1/2” value was “more phosphorylated”.
With “FGF: growth factor of the fibroblast growth factor family, preferably FGF-2 (bFGF)” the “phosphorylation of the Erk 1/2” value was “more phosphorylated”.
In the case of “HGF: growth factor added to the serum-free culture medium”, the “phosphorylation of the Erk 1/2” value was “more phosphorylated; also recorded: promoted in view of concentration dependence”.
With PDGF the “phosphorylation of the Erk 1/2” value was “more phosphorylated”.
With insulin: medium supplement the “phosphorylation of the Erk 1/2” value was “more phosphorylated”.

Tested on: Akt
Assay: Mitogenic signal transduction, western blot for phosphorylated Akt (FIGS. 11, 12)
Assay type: cell-based
Settings: human mesenchymal stem cells stimulated; compared with controlled cells (not stimulated)
Description: For the purpose of clarifying a mechanism of cell proliferation in a serum-free culture medium, study was further conducted on activation of a mitogenic signal transduction system caused by each additive factor added into a serum-free culture medium. An active state of the mitogenic signal transduction system caused by each additive factor was analyzed by a western blot method. Here, in protein phosphoenzymes that are particularly closely related to cell proliferation, an extracellular signal control kinase Erk 1/2 and an Akt (a protein phosphoenzyme located downstream to PI3K, and related to regulations of cell functions) were focused in the present example. When the Erk1 1/2 and the Akt are phosphorylated, they are converted into active forms. In a culture medium containing 10% FBS on a 12-well plate, human mesenchymal stem cells (three cell lines) were cultured until the cells were in a subconfluent state. The cultured cells were washed twice with PBS, and were then further cultured for 16 hours in a serum-free culture medium containing 1.25 mg/ml of BSA (bovine serum albumin). […] Proteins thus separated into fractions were transferred on a PVDF membrane (made by Millipore Co.), and then, the fractions were analyzed with antiphosphorylation-specific Erk 1/2 antibody, or antiphosphorylation-specific Akt antibody (both are made by Cell Signaling technology Inc.).
For 3-sn-phosphatidic acid from egg yolk, the “phosphorylation of the Akt” value was “strongly promoted”.
With “HGF: growth factor added to the serum-free culture medium” the “phosphorylation of the Akt” value was “also promoted”.

Tested on: human mesenchymal stem cell
Assay: not given
Settings: added to a culture medium containing 10% FBS; cited from earlier work
For `[Cl-].[Li+]` [lithium chloride], the “proliferation of a human mesenchymal stem cell” value is listed as “promoting proliferation” and the “wingless/int (wnt) signal pathway” value is listed as “activates”.
